Reference: publication PMC9571290, “Preliminary Structure–Activity Relationship Study of the MMV Pathogen Box Compound MMV675968 (2,4-Diaminoquinazoline) Unveils Novel Inhibitors of Trypanosoma brucei brucei” (Molecules, 2022)
Read-outs that look alike come from different tables or passages of the source.

How the values were obtained:
[1] = tested on: Toxoplasma gondii; set-up: method as in PMID 29133550; settings: read-out: IC50 against Toxoplasma gondii; cited from earlier work
[2] = tested on: DHFR; set-up: method as in PMID 7799402; settings: read-out: IC50 DHFR Toxoplasma gondii; cited from earlier work
[3] = tested on: P. falciparum; set-up: method as in PMID 28674055; settings: cited from earlier work
[4] = tested on: DHFR; set-up: method as in PMID 7799402; settings: read-out: IC50 DHFR Pneumocystis carinii; cited from earlier work
[5] = tested on: bloodstream forms of Trypanosoma brucei brucei; test: resazurin-based antitrypanosomal inhibition assay; type: cell-based
Method: Parasites were axenically cultivated in sterile vented flasks containing complete Hirumi’s modified Iscove’s medium 9 (HMI-9) [500 mL IMDM (Iscove’s modified Dulbecco’s medium) (Gibco, Waltham, MA, USA) supplemented with 10% (v/v) heat-inactivated fetal bovine serum (HIFBS) (Sigma Aldrich), 10% (v/v) serum plus (Sigma Aldrich), HMI-9 supplement (1 mM hypoxanthine, 0.16 mM thymidine, 50 µM bathocuproine disulfonic acid, 1.5 mM cysteine, 1.25 Mm pyruvic acid, 0.2 mM 2-mercaptoethanol (Sigma Aldrich)), and 1% (v/v) penicillin–streptomycin (Sigma Aldrich) and incubated at 37 °C in a 5% CO2 atmosphere.
The in vitro inhibitory potency of the 400 MMVPB compounds against bloodstream forms of Trypanosoma brucei brucei was evaluated using the resazurin-based inhibition assay as previously described. Briefly, parasites at their mid-logarithmic growth phase were counted, and the cell density was adjusted with fresh complete HMI-9 medium to 2 × 10^5 trypanosomes per mL. Then, 90 µL of parasite suspension was then distributed into the wells of 96-well flat-bottomed plates containing 10 µL of compounds for a final test concentration of 10 µM. […] Each assay plate was set up in duplicate and repeated two times. The percent parasite inhibition was determined for each compound based on fluorescence readouts relative to the mean fluorescence of negative control wells.
y = 100/[1+ 10^(logIC50/99-x)H], where H is the hill coefficient or slope factor [60].

[6] = tested on: Cryptosporidium parvum; set-up: method as in PMID 11709300; settings: read-out: IC50 phenotypic whole parasite testing; cited from earlier work
[7] = tested on: Cryptosporidium parvum-I DHFR; set-up: method as in PMID 11709300; settings: in vitro; cited from earlier work
[8] = in vitro; settings: African green monkey
Method: (§1) The resulting pellet was resuspended and counted in a Neubauer chamber in the presence of trypan blue to exclude nonviable cells colored in blue. Once the cell load was estimated, they were either used for the next passage in a new flask or processed for the cytotoxicity assay.
(§2) Briefly, Vero cells at a density of 10^4 cells per well were plated in 100 µL of complete DMEM and incubated overnight to allow cell attachment. Plates were then controlled under an inverted fluorescence microscope (Lumascope LS520) to ensure adherence, sterility and cell integrity. Thereafter, culture medium from each well was carefully emptied, and plates were filled with 90 µL of fresh complete medium followed by the addition of 10 µL of serial 5-fold dilutions of compound solutions. […] Fluorescence was then read using a Magelan Infinite M200 fluorescence multiwell plate reader (Tecan) with excitation and emission wavelengths of 530 and 590 nm, respectively. The percentage of cell viability was calculated from readouts, and the median cytotoxic concentration (CC50) for each compound was deduced from concentration–response curves using GraphPad Prism 8.0 software as described above. Selectivity indexes were then determined for each test substance as follows: SI = CC50(Vero cells)/IC50(T. brucei brucei).

[9] = tested on: T. b. brucei; set-up: method as in Duffy et al., 13; settings: ref Duffy et al., 13; read-out: IC50 against T. b. brucei; cited from earlier work
[10] = tested on: kinetoplastids (T. brucei brucei and T. brucei rhodesiense); set-up: method as in MMV Pathogen Box supporting information; settings: against kinetoplastids; ref MMV Pathogen Box supporting information; read-out: Reported IC50; cited from earlier work
[11] = tested on: Vero cells; test: cytotoxicity against Vero cells (resazurin viability assay); settings: read-out: CC50 Vero; Table 2
Method: as §1, §2

[12] = tested on: bloodstream form of Trypanosoma brucei brucei; test: parasite-killing kinetics and cidal or static effect; type: cell-based; settings: IC90 and IC99; removal at 4 h (10) or 24 h (7), subculture in inhibitor-free medium
Method: Thus, they were selected, and their effect at various concentrations was assessed on the proliferation rate of the bloodstream form of Trypanosoma brucei brucei using microscopic cell count. […] After specified exposure time intervals (0, 4, 8, 12, 24, 30, 36, 48, 60, 72 h), the content of each well was harvested and counted on a Neubauer hemacytometer to determine the number of mobile parasites. The obtained values were used to plot the growth curves as parasite density (cells/mL) versus incubation time using GraphPad Prism 8.0 software.
Therefore, the ability of parasites to recover post exposure to inhibitors 10 and 7 was further evaluated. […] After that, the cells were washed three times with fresh complete medium by centrifugation at 2500 rpm for 7 min. Cell pellets were thereafter resuspended in fresh complete culture medium in a 24-well plate and subcultured under the same conditions for 68 h for compound 10 and 48 h for compound 7 to achieve the complete parasite growth pattern. Thereafter, cells were enumerated using the Neubauer cell counter at each time point. The assay was performed in duplicate, and the mean cell counts were plotted […] against time using GraphPad Prism 8.0 to assess the cidal or static effect of inhibitors.

[13] = ferric ion reducing antioxidant power (FRAP); settings: Fe^3+-reducing activity
Method: Iron is one of the vital elements for all parasites, including trypanosomes, as it plays a key role in pathogenesis and the host immune response. Therefore, iron bioavailability reducing agents to the parasite could be potential candidates for drug development against trypanosomiasis. To this end, we determined the capacity of the test compounds to reduce iron from ferric to ferrous status using the method described by Benzie et al.. Briefly, 25 µL of each compound (7 and 10) was added to 25 µL of a solution of Fe^3+ prepared at 1.2 mg/mL in distilled water in a 96-well microplate. The plate was incubated for 15 min at room temperature in darkness, after which 50 µL of ortho-phenanthroline (0.2% in methanol) was added to achieve final compound concentrations ranging from 400 µM to 0.19 µM. Plates were reincubated for 15 min, and the absorbance was measured at 510 nm. Ascorbic acid was used as a positive control and tested at concentrations ranging from 100 to 0.048 μg/mL. The median reducing concentration (RC50) values of compounds were determined through sigmoidal concentration–response curves using GraphPad Prism version 8.0 software.

[14] = Trypanosoma brucei, Table 4, negative log of IC50 in molar, read-out: pIC50 T. b. b. (converted)

Question: What does the source list for `COc1ccc(OC)c(NCc2ccc3nc(N)nc(N)c3c2Cl)c1` [Analog 1, 2,4-diamino-5-chloro-6-[(2,5-dimethoxyanilino)methyl]quinazoline]?
Answer: IC50 [1]: 20 nM; IC50 [2]: 30 nM; IC50 [3]: 70 nM; IC50 [4]: 51 nM; IC50 ([5]; Table 4, analogs of MMV675968, solid material, read-out: IC50 ± SD T. b. b.): 2600 nM; IC50 ([5]; Trypanosoma brucei, Table 3, MMVPB compounds with known potency against other diseases, read-out: IC50 ± SD T. b. b.): 2800 ± 70 nM; IC50 ([5]; Trypanosoma brucei, Table 3, negative log of IC50 in molar, read-out: pIC50 T. b. b. (converted)): 2820 nM; IC50 ([5]; Trypanosoma brucei, Table 4, analogs of MMV675968, solid material, read-out: IC50 ± SD T. b. b.): 2600 to 2800 nM; IC50 [5, 14]: 2630 nM; IC50 [6]: 200 nM; IC50 [7]: 6.5 nM; CC50 at 48 h [8]: > 100000 nM

Question: For `Cc1nn(C)c(C)c1NS(=O)(=O)c1c(Cl)cc(-c2ccnc(N3CCNCC3)c2)cc1Cl` [MMV688180], which IC50 [9] is on record?
Answer: Its IC50 is 10 nM.

Question: And the IC50 [10]?
Answer: The IC50 was < 130 nM.

Question: What about the IC50 ([5]; Table 2, MMVPB compounds with known anti-kinetoplastid activity, read-out: IC50 ± SD T. b. b.) of the same compound?
Answer: The IC50 was 2.3 nM.

Question: And the “pIC50 T. b. b.” value ([5]; Table 2, negative log of IC50 in molar)?
Answer: The value was 8.64.

Question: And the IC50 ([5]; given in nM, read-out: IC50 against T. b. brucei)?
Answer: The IC50 was 2.3 nM.

Question: And the CC50 [11]?
Answer: Its CC50 is > 100000 nM.

Question: With `N=C(N)c1ccc(OCCCCCOc2ccc(C(=N)N)cc2)cc1` [Pentamidine, reference compound] as the compound, how does the “cidal or static effect after inhibitor removal” value [12] read?
Answer: Its value is “static profile”.

Question: And the IC50 ([5]; Trypanosoma brucei, Table 1, reference drugs included in MMVPB, read-out: IC50 ± SD T. b. b.)?
Answer: The IC50 was 2 ± 0.3 nM.

Question: And the IC50 ([5]; Trypanosoma brucei, Table 1, negative log of IC50 in molar, read-out: pIC50 T. b. b. (converted))?
Answer: Its IC50 is 2 nM.

Question: And the IC50 [5, 14]?
Answer: The IC50 was 2.24 nM.

Question: What about the CC50 at 48 h [8] of the same compound?
Answer: The CC50 at 48 h was > 100000 nM.

Question: Which “median reducing concentration (RC50)” value [13] does the source give for `O=C1O[C@H]([C@@H](O)CO)C(O)=C1O` [ascorbic acid, reference compound] here?
Answer: The value was 165 µM.
